Source: patent US10442833B1 (KING SAUD UNIVERSITY, priority 2018, dated 2019)
In brackets after ≈: the same amount, converted by molar mass.

Key:
[1] = system: Staphylococcus epidermidis (RCMB 010024); assay: Agar well diffusion, Staphylococcus epidermidis; type: cell-based; settings: Reference Drug, 30 μg/mL; well diameter 6 mm; 37° C., 18 to 24 h; in mm
Procedure: (§1) Antimicrobial tests were carried out by agar well diffusion according to the National Committee for Clinical Laboratory Standards (NCCLS) criteria. […] Then, 100 μl of 10% tested sample was added to the wells, while 10% DMSO was used as the negative control. […] Each test was performed in triplicate and the average of the results was calculated. The extraction solvents were used as negative controls (NCCLS, 2002; 2004).

[2] = system: Streptococcus pyogenes (RCMB 010015); assay: Agar well diffusion, Streptococcus pyogenes; type: cell-based; settings: Reference Drug, 30 μg/mL; well diameter 6 mm; 37° C., 18 to 24 h; in mm
Procedure: as §1

[3] = system: Staphylococcus aureus (RCMB 010027); assay: Agar well diffusion, Staphylococcus aureus; type: cell-based; settings: Reference Drug, 30 μg/mL; well diameter 6 mm; 37° C., 18 to 24 h; in mm
Procedure: as §1

Candida albicans (RCMB) = assay: Agar well diffusion, Candida albicans; type: cell-based; settings: Reference Drug, 30 μg/mL; well diameter 6 mm; 37° C., 18 to 24 h
Procedure: (§2) Antimicrobial tests were carried out by agar well diffusion according to the National Committee for Clinical Laboratory Standards (NCCLS) criteria.
(§3) Bacterial and fungal suspensions were prepared at 0.5 McFarland standard turbulence in a volume of 100 μL and were cultivated on Mueller-Hinton agar and Sabouraud dextrose media punched with 6-mm diameter wells for the bacteria and fungi, respectively. Then, 100 μl of 10% tested sample was added to the wells, while 10% DMSO was used as the negative control. Ampicillin, gentamicin, and amphotericin B (30 μg/mL) were used as standard agents against the Gram-positive bacteria, Gram-negative bacteria, and fungi, respectively. After incubation of the plates at 37° C. for 18 to 24 h, the antimicrobial activity was evaluated by measuring the diameter of the inhibition zones. Each test was performed in triplicate and the average of the results was calculated. The extraction solvents were used as negative controls (NCCLS, 2002; 2004).

[4] = system: Geotricum candidum (RCMB 05007); assay: Agar well diffusion, Geotricum candidum; type: cell-based; settings: Reference Drug, 30 μg/mL; well diameter 6 mm; 37° C., 18 to 24 h
Procedure: as §2, §3

[5] = system: Absidia corymbifera (RCMB 02564); assay: Agar well diffusion, Absidia corymbifera; type: cell-based; settings: Reference Drug, 30 μg/mL; well diameter 6 mm; 37° C., 18 to 24 h
Procedure: as §2, §3

[6] = system: Klebsiella pneumoniae (RCMB 0010093); assay: Agar well diffusion, Klebsiella pneumoniae; type: cell-based; settings: Reference Drug, 30 μg/mL; well diameter 6 mm; 37° C., 18 to 24 h; in mm
Procedure: as §1

[7] = system: Salmonella enteritidis (RCMB 010084); assay: Agar well diffusion, Salmonella enteritidis; type: cell-based; settings: Reference Drug, 30 μg/mL; well diameter 6 mm; 37° C., 18 to 24 h; in mm
Procedure: as §1

[8] = system: Proteous vulgaris (RCMB 010085); assay: Agar well diffusion, Proteous vulgaris; type: cell-based; settings: Reference Drug, 30 μg/mL; well diameter 6 mm; 37° C., 18 to 24 h; in mm
Procedure: as §1

[9] = system: MDA (breast cancer cells); settings: reported by Al-Massarani et al., Molecules 2017; cited from earlier work
Hela cells = settings: reported by Al-Massarani et al., Molecules 2017; cited from earlier work
A549 cells = settings: reported by Al-Massarani et al., Molecules 2017; cited from earlier work

With `CC1(C)S[C@@H]2[C@H](NC(=O)[C@H](N)c3ccccc3)C(=O)N2[C@H]1C(=O)O` [Ampicillin] the “Zone of Inhibition” value [1] was 25.0, the “Zone of Inhibition” value [2] was 26.3 and the “Zone of Inhibition” value [3] was 27.3.

In the case of `C[C@@H]1[C@H](O)[C@@H](C)/C=C/C=C/C=C/C=C/C=C/C=C/C=C/[C@H](O[C@@H]2O[C@H](C)[C@@H](O)[C@H](N)[C@@H]2O)C[C@@H]2O[C@](O)(C[C@@H](O)C[C@@H](O)[C@H](O)CC[C@@H](O)C[C@@H](O)CC(=O)O[C@H]1C)C[C@H](O)[C@H]2C(=O)O` [Amphotericin B], the “Zone of Inhibition” value (Candida albicans (RCMB)) is reported as 25.7, the “Zone of Inhibition” value [4] is reported as 27.0 and the “Zone of Inhibition” value [5] is reported as 23.0.

With Gentamycin the “Zone of Inhibition” value [6] was 26.4, the “Zone of Inhibition” value [7] was 25.2 and the “Zone of Inhibition” value [8] was 23.4.

For `C[C@H]1[C@H](C)CC[C@]2(C(=O)O)CC[C@]3(C)C(=CC[C@@H]4[C@@]5(C)CC[C@H](O)C(C)(C)[C@@H]5CC[C@]43C)[C@H]12` [ursolic acid], the IC50 [9] is listed as 47.76 µg/mL (≈ 105 µM), the IC50 (Hela cells) is listed as 50.2 µg/mL (≈ 110 µM) and the IC50 (A549 cells) is listed as 65.2 µg/mL (≈ 143 µM).
